Reference: patent publication US6440903B1, “Substituted 2,4-diamino-1,3,5-triazines as herbicides” (Bayer Aktiengesellschaft, priority 1996, dated 2002)

Assays:
[1] = system: Setaria; test: Post-emergence test; assay type: in vivo; settings: greenhouse, scored after three weeks; for pest or weed control at 1000 g/ha / % damage, Setaria: 1000 g of ai./ha
Protocol: (§1) Post-emergence Test Solvent: 5 parts by weight of acetone Emulsifier: 1 part by weight of alkylaryl polyglycol ether To produce a suitable preparation of active compound, 1 part by weight of active compound is mixed with the stated amount of solvent, the stated amount of emulsifier is added and the concentrate is diluted with water to the desired concentration. Test plants which have a height of 5-15 cm are sprayed with the preparation of active compound such that the particular amounts of active compounds desired are applied per unit area. The concentration of the spray liquor is chosen so that the particular amounts of active compound desired are applied in 1000 l of water/ha. After three weeks, the degree of damage to the plants is scored visually in % damage in comparison to the untreated control. The Figures Denote: 0%=no effect (like untreated control) 100%=total destruction

[2] = system: Sinapis; test: Post-emergence test; assay type: in vivo; settings: greenhouse, 1000 g of ai./ha, scored after three weeks
Protocol: as §1

[3] = system: Amaranthus; test: Post-emergence test; assay type: in vivo; settings: greenhouse, scored after three weeks; for pest or weed control at 1000 g/ha / % damage, Amaranthus: 1000 g of ai./ha
Protocol: as §1

[4] = system: Galium; test: Post-emergence test; assay type: in vivo; settings: greenhouse, scored after three weeks
Protocol: as §1

[5] = system: weeds; test: Pre-emergence test (summary in text); assay type: in vivo; settings: result in words
Protocol: (§2) Solvent: 5 parts by weight of acetone
(§3) Emulsifier: 1 part by weight of alkylaryl polyglycol ether
(§4) To produce a suitable preparation of active compound, 1 part by weight of active compound is mixed with the stated amount of solvent, the stated amount of emulsifier is added and the concentrate is diluted with water to the desired concentration.
Seeds of the test plants are sown in normal soil. After about 24 hours, the soil is watered with the preparation of active compound. The amount of water per unit area is advantageously kept constant. The concentration of active compound in the preparation is immaterial, only the application rate of active compound per unit area matters.
After three weeks, the degree of damage to the plants is scored visually in % damage in comparison to the development of the untreated control.
(§5) 0%=no effect (like untreated control)

[6] = system: weeds; test: Post-emergence test (summary in text); assay type: in vivo; settings: result in words
Protocol: as §2, §3, §4
Test plants which have a height of 5-15 cm are sprayed with the preparation of active compound such that the particular amounts of active compounds desired are applied per unit area. The concentration of the spray liquor is chosen so that the particular amounts of active compound desired are applied in 1000 l of water/ha.
After three weeks, the degree of damage to the plants is scored visually in % damage in comparison to the untreated control.
as §5

[7] = system: Polygonum; test: Pre-emergence test; assay type: in vivo; settings: greenhouse, scored after three weeks
Protocol: (§6) Pre-emergence Test Solvent: 5 parts by weight of acetone Emulsifier: 1 part by weight of alkylaryl polyglycol ether To produce a suitable preparation of active compound, 1 part by weight of active compound is mixed with the stated amount of solvent, the stated amount of emulsifier is added and the concentrate is diluted with water to the desired concentration. Seeds of the test plants are sown in normal soil. After about 24 hours, the soil is watered with the preparation of active compound. The amount of water per unit area is advantageously kept constant. The concentration of active compound in the preparation is immaterial, only the application rate of active compound per unit area matters. After three weeks, the degree of damage to the plants is scored visually in % damage in comparison to the development of the untreated control. The figures denote: 0%=no effect (like untreated control) 100%=total destruction

[8] = system: Cotton; test: Pre-emergence test; assay type: in vivo; settings: greenhouse, 500 g of ai./ha, scored after three weeks
Protocol: as §6

[9] = system: Wheat; test: Pre-emergence test; assay type: in vivo; settings: greenhouse, scored after three weeks
Protocol: as §6

[10] = system: Echinochloa; test: Pre-emergence test; assay type: in vivo; settings: greenhouse, scored after three weeks
Protocol: as §6

[11] = system: Digitaria; test: Pre-emergence test; assay type: in vivo; settings: greenhouse, scored after three weeks
Protocol: as §6

[12] = system: Veronica; test: Pre-emergence test; assay type: in vivo; settings: greenhouse, scored after three weeks
Protocol: as §6

[13] = system: Amaranthus; test: Pre-emergence test; assay type: in vivo; settings: greenhouse, scored after three weeks
Protocol: as §6

[14] = system: Setaria; test: Pre-emergence test; assay type: in vivo; settings: greenhouse, 1000 g of ai./ha, scored after three weeks
Protocol: as §6

[15] = system: Solanum; test: Pre-emergence test; assay type: in vivo; settings: greenhouse, 1000 g of ai./ha, scored after three weeks
Protocol: as §6

[16] = system: Maize; test: Post-emergence test; assay type: in vivo; settings: greenhouse, 1000 g of ai./ha, scored after three weeks
Protocol: as §1

[17] = system: Alopecurus; test: Post-emergence test; assay type: in vivo; settings: greenhouse, 1000 g of ai./ha, scored after three weeks
Protocol: as §1

[18] = system: Avena fatua; test: Post-emergence test; assay type: in vivo; settings: greenhouse, 1000 g of ai./ha, scored after three weeks
Protocol: as §1

[19] = system: Abutilon; test: Post-emergence test; assay type: in vivo; settings: greenhouse, 1000 g of ai./ha, scored after three weeks
Protocol: as §1

[20] = Setaria, 504 h, read-out: % damage, Setaria
[21] = Amaranthus, 504 h, read-out: % damage, Amaranthus

## COCc1nc(NC(C)=O)nc(NC(C)c2ccc(SOC)cc2)n1 (centres unmarked)
[1]; [20]
  pest or weed control at 1000 g/ha: 100%
[2]
  % damage, Sinapis: 100%
[3]; [21]
  pest or weed control at 1000 g/ha: 100%

## COSc1ccc(C(C)Nc2nc(N)nc(C(C)Cl)n2)cc1 (centres unmarked)
[1]; [20]
  pest or weed control at 1000 g/ha: 100%
[2]
  % damage, Sinapis: 100%
[3]; [21]
  pest or weed control at 1000 g/ha: 100%

## COSc1ccc(C(C)Nc2nc(NC(C)=O)nc(C(Cl)Cl)n2)cc1 (centres unmarked)
[1]; Setaria, 504 h, 500 g of ai./ha, read-out: % damage, Setaria
  pest or weed control at 500 g/ha: 90%
[4]; 500 g of ai./ha
  % damage, Galium: 100%
[3]; Amaranthus, 504 h, 500 g of ai./ha, read-out: % damage, Amaranthus
  pest or weed control at 500 g/ha: 100%

## CC(F)c1nc(N)nc(NC(C)c2ccc(Cl)cc2)n1 (centres unmarked) [Example 13]
[5]
  activity against weeds: strong activity
[6]
  activity against weeds: strong activity

## CC(F)c1nc(N)nc(NC(C)c2ccc(Cl)cc2)n1 (centres unmarked) [Example 14]
[5]
  activity against weeds: strong activity

## CC(Nc1nc(N)nc(C(C)(C)F)n1)c1ccc(Cl)cc1 (centres unmarked) [Example 16]
[5]
  activity against weeds: strong activity
[6]
  activity against weeds: strong activity

## CC(Nc1nc(N)nc(C(C)(C)F)n1)c1ccc(Cl)cc1 (centres unmarked) [Example 22]
[5]
  activity against weeds: strong activity

## CC(Nc1nc(N)nc(C(Cl)Cl)n1)c1ccc(Cl)cc1 (centres unmarked) [Example 149]
other
  melting point: 152 °C
[5]
  activity against weeds: strong activity

## CC(Cl)c1nc(N)nc(NC(C)c2ccc(Cl)cc2)n1 (centres unmarked) [Example 157]
[5]
  activity against weeds: strong activity

## CC(Nc1nc(N)nc(C(C)(Cl)Cl)n1)c1ccc(Cl)cc1 (centres unmarked) [Example 159]
[5]
  activity against weeds: strong activity

## CC(=O)Nc1nc(NC(C)c2ccc(Cl)cc2)nc(C(C)(Cl)Cl)n1 (centres unmarked) [Example 160]
other
  melting point: 118 °C
[5]
  activity against weeds: strong activity

## CC(Nc1nc(N)nc(C(Cl)Cl)n1)c1ccc(Cl)cc1 (centres unmarked) [Example 168]
other
  melting point: 133 °C
[6]
  activity against weeds: strong activity

## CCc1nc(NC(C)=O)nc(NC(C)c2ccc(Cl)cc2)n1 (centres unmarked) [Example 173]
other
  melting point: 182 °C
[6]
  activity against weeds: strong activity

## CC(=O)Nc1nc(NC(C)c2ccc(Cl)cc2)nc(C(Cl)Cl)n1 (centres unmarked) [Example 175]
other
  melting point: 131 °C
[6]
  activity against weeds: strong activity

## CC(=O)Nc1nc(NC(C)c2ccc(Cl)cc2)nc(C(C)Cl)n1 (centres unmarked) [Example 177]
other
  melting point: 110 °C
[6]
  activity against weeds: strong activity

## COCc1nc(NC(C)=O)nc(NC(C)c2ccc(Cl)cc2)n1 (centres unmarked) [Example 178]
other
  melting point: 155 °C
[6]
  activity against weeds: strong activity

## CC(=O)Nc1nc(NC(C)c2ccc(Cl)cc2)nc(C(F)C(F)(F)F)n1 (centres unmarked) [drawing 97]
[7]; 500 g of ai./ha
  % damage, Polygonum: 100%
[8]
  % damage, Cotton: 0%
[9]; 500 g of ai./ha
  % damage, Wheat: 0%
[10]; 500 g of ai./ha
  % damage, Echinochloa: 95%
[11]; 500 g of ai./ha
  % damage, Digitaria: 80%
[12]; 500 g of ai./ha
  % damage, Veronica: 100%
[13]; 500 g of ai./ha
  % damage, Amaranthus: 100%

## CC(Nc1nc(N)nc(C(F)C(F)(F)F)n1)c1ccc(Cl)cc1 (centres unmarked) [drawing 101]
[7]; 1000 g of ai./ha
  % damage, Polygonum: 100%
[14]
  % damage, Setaria: 100%
[15]
  % damage, Solanum: 100%
[9]; 1000 g of ai./ha
  % damage, Wheat: 0%
[10]; 1000 g of ai./ha
  % damage, Echinochloa: 100%
[11]; 1000 g of ai./ha
  % damage, Digitaria: 100%
[12]; 1000 g of ai./ha
  % damage, Veronica: 100%
[13]; 1000 g of ai./ha
  % damage, Amaranthus: 100%

## CC(=O)Nc1nc(NC(C)c2ccc(Cl)cc2)nc(C(F)C(F)(F)F)n1 (centres unmarked) [drawing 102]
[7]; 1000 g of ai./ha
  % damage, Polygonum: 100%
[14]
  % damage, Setaria: 100%
[15]
  % damage, Solanum: 100%
[9]; 1000 g of ai./ha
  % damage, Wheat: 0%
[10]; 1000 g of ai./ha
  % damage, Echinochloa: 100%
[11]; 1000 g of ai./ha
  % damage, Digitaria: 100%
[12]; 1000 g of ai./ha
  % damage, Veronica: 100%
[13]; 1000 g of ai./ha
  % damage, Amaranthus: 100%

## CC(=O)Nc1nc(NC(C)c2ccc(Cl)cc2)nc(C(C)(Cl)Cl)n1 (centres unmarked) [drawing 103]
[7]; 1000 g of ai./ha
  % damage, Polygonum: 100%
[14]
  % damage, Setaria: 95%
[15]
  % damage, Solanum: 100%
[9]; 1000 g of ai./ha
  % damage, Wheat: 0%
[10]; 1000 g of ai./ha
  % damage, Echinochloa: 100%
[11]; 1000 g of ai./ha
  % damage, Digitaria: 100%
[12]; 1000 g of ai./ha
  % damage, Veronica: 100%
[13]; 1000 g of ai./ha
  % damage, Amaranthus: 100%

## CC(Nc1nc(N)nc(Cl)n1)c1ccc(Cl)cc1 (centres unmarked) [drawing 106]
[1]; [20]
  pest or weed control at 1000 g/ha: 90%
[16]
  % damage, Maize: 20%
[3]; [21]
  pest or weed control at 1000 g/ha: 100%
[17]
  % damage, Alopecurus: 80%

## CC(Nc1nc(N)nc(Cl)n1)c1ccc(Cl)cc1 (centres unmarked) [drawing 107]
[1]
  % damage, Setaria: 100%
[18]
  % damage, Avena fatua: 100%
[19]
  % damage, Abutilon: 100%
[2]
  % damage, Sinapis: 100%
[3]
  % damage, Amaranthus: 100%
[17]
  % damage, Alopecurus: 100%

## CC(Nc1nc(N)nc(Cl)n1)c1ccc(Cl)cc1 (centres unmarked) [drawing 108]
[1]
  % damage, Setaria: 100%
[18]
  % damage, Avena fatua: 80%
[19]
  % damage, Abutilon: 100%
[2]
  % damage, Sinapis: 100%
[3]
  % damage, Amaranthus: 100%
[17]
  % damage, Alopecurus: 70%

## CC(Nc1nc(N)nc(C(F)(F)F)n1)c1ccc(Cl)cc1 (centres unmarked) [drawing 109]
[1]; [20]
  pest or weed control at 1000 g/ha: 100%
[18]
  % damage, Avena fatua: 100%
[19]
  % damage, Abutilon: 100%
[2]
  % damage, Sinapis: 100%
[3]; [21]
  pest or weed control at 1000 g/ha: 100%
[17]
  % damage, Alopecurus: 100%

## CC(Nc1nc(N)nc(C(C)(C)F)n1)c1ccc(Cl)cc1 (centres unmarked) [drawing 110]
[1]; [20]
  pest or weed control at 1000 g/ha: 100%
[18]
  % damage, Avena fatua: 95%
[19]
  % damage, Abutilon: 100%
[2]
  % damage, Sinapis: 100%
[3]; [21]
  pest or weed control at 1000 g/ha: 100%
[17]
  % damage, Alopecurus: 90%

## COCc1nc(NC(C)=O)nc(NC(C)c2ccc(SC)cc2)n1 (centres unmarked) [drawing 143]
[1]; [20]
  pest or weed control at 1000 g/ha: 100%
[16]
  % damage, Maize: 0%
[2]
  % damage, Sinapis: 100%
[3]; [21]
  pest or weed control at 1000 g/ha: 100%

## CC(=O)Nc1nc(NC(C)c2ccc(Cl)cc2)nc(C(Cl)Cl)n1 (centres unmarked) [drawing 148]
[1]; [20]
  pest or weed control at 1000 g/ha: 100%
[4]; 1000 g of ai./ha
  % damage, Galium: 70%
[18]
  % damage, Avena fatua: 70%
[3]; [21]
  pest or weed control at 1000 g/ha: 100%
